Data from US20230117592A1 (SRI International, priority 2019, published 2023).
pIC50: −log10 of the molar value. Several values for one entry are separate records, joined by “and”; a condition that tells them apart may be missing. Equal entries are not always repeated. Where two headings read alike, the source gives them in different places.

Key:
12-LOX = target: T1, 12-LOX (Homo sapiens, UniProt P18054); test: 12-LOX fluorescent assay (in vitro lipoxygenase inhibition); assay type: biochemical; conditions: for IC50: 100 nM recombinant 12-LOX, 20 μM AA, DHR123 fluorescence, several values in a cell = repeat determinations, read-out: IC50 (μM) values for in vitro lipoxygenase inhibition, 12-LOX
T1 sequence (P18054 1-663): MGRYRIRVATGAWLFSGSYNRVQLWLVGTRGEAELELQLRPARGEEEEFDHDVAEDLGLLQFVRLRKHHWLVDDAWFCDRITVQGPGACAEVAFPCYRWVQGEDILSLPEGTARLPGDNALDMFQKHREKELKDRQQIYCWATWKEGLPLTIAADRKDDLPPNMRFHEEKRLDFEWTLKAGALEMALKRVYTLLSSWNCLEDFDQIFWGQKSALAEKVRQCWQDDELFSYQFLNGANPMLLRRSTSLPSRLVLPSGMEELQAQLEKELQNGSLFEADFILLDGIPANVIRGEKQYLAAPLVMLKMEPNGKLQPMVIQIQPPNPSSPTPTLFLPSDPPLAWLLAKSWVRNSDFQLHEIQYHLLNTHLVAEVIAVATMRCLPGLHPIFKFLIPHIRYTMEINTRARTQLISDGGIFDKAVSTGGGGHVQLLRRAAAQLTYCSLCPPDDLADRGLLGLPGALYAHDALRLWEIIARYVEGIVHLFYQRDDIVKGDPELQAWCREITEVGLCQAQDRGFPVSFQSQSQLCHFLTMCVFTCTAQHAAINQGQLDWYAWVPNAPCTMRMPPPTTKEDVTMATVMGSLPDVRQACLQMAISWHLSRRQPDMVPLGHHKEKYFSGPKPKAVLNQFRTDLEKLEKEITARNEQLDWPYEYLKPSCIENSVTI
Experimental: 12-LOX/15-LOX Fluorescent Assay
The enzyme assay (100 ul) contained 50 mM Tris, pH 7.5, 0.05% Tween-20, 20 μM AA/LA, 1 μM DHR123, and 100 nM recombinant 12-LOX enzyme/50 nM recombinant 15-LOX enzyme. Inhibitors (dissolved in DMSO) were plated at 1 μL into 96-well assay microplates followed by a 40 μL addition of a solution containing 12-LOX/15-LOX enzyme. Enzyme was pre-incubated with compounds for 15 mins. The assay was initiated by the addition of a 40 μL substrate solution containing AA/LA, and 20μL addition of a solution containing DHR123. […] Percent inhibition was calculated for each compound dose for IC50 curve fitting using 4 Parameter Logistic Model or Sigmoidal Dose-Response Model.

5-LOX = target: T2, 5-LOX (Homo sapiens, UniProt P09917); test: 5-LOX fluorescent assay (in vitro lipoxygenase inhibition); assay type: biochemical; conditions: recombinant 5-LOX cell lysate, 20 μM AA, DHR123 fluorescence; several values in a cell = repeat determinations; read-out: IC50 (μM) values for in vitro lipoxygenase inhibition, 5-LOX
T2 sequence (P09917 1-674): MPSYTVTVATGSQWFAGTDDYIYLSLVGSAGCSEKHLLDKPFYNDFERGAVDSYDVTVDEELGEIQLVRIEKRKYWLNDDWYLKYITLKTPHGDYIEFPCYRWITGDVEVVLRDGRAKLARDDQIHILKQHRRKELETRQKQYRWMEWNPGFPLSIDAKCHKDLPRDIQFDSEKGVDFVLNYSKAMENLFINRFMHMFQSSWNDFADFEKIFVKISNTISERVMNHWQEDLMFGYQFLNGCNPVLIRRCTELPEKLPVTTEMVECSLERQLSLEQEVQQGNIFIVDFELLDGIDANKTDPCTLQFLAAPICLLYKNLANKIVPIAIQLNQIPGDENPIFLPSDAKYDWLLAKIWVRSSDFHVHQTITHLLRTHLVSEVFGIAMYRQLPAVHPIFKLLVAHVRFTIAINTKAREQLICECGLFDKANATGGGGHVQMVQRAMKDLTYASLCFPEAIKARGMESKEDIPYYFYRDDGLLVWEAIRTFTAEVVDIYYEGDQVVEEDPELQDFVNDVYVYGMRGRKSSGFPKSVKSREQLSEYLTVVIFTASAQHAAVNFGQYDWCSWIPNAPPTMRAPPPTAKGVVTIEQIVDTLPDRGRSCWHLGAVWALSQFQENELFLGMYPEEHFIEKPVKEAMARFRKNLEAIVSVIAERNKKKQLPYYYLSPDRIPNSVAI
Experimental: 5-LOX FI assay Fluorescent Assay
The enzyme assay (100 μL) contained 50 mM Tris, pH 7.5, 0.1 mM EDTA, 0.3 mM CaCl2, 20 μM AA, 100 μM ATP, 1 μM DHR123, and recombinant 5-LOX cell lysate (0.5 μL/100 μL). Inhibitors (dissolved in DMSO) were plated at 1 μL into 96-well assay microplates followed by a 40 μL addition of a solution containing 5-LOX enzyme. Enzyme was pre-incubated with compounds for 15 mins. The assay was initiated by the addition of a 40 μL substrate solution containing AA and ATP, and 20 μL addition of a solution containing DHR123. […] Percent inhibition was calculated for each compound dose for IC50 curve fitting using 4 Parameter Logistic Model or Sigmoidal Dose-Response Model.

Structure (SMILES) | IC50 (12-LOX) | IC50 (5-LOX) | pIC50 (12-LOX)
c1ccc(CNc2ccc(NCCn3cncn3)c(-c3cccnc3)c2)cc1 [SS20308-0216-01, N^1-(2-(1H-1,2,4-triazol-1-yl)ethyl)-N^4-benzyl-2-(pyridin-3-yl)benzene-1,4-diamine] | 0.03 µM | 0.04 µM | 
c1ccc(-c2cc(NCC3CCCCC3)ccc2NCCn2cncn2)cc1 [SS20308-0217-01, N^2-(2-(1H-1,2,4-triazol-1-yl)ethyl)-N^5-(cyclohexylmethyl)-[1,1′-biphenyl]-2,5-diamine] | 0.02 µM and 0.04 µM | 0.02 µM and 0.06 µM | 
c1ccc(CNc2ccc(NCCn3cncn3)c(-c3cccs3)n2)cc1 [SS20308-0218-01, N^5-(2-(1H-1,2,4-triazol-1-yl)ethyl)-N^2-benzyl-6-(thiophen-2-yl)pyridine-2,5-diamine] | 0.01 µM | 0.02 µM | 
c1ccc(CNc2cnc(-c3ccccc3)c(NCCn3cncn3)c2)cc1 [SS20308-0219-01, N^3-(2-(1H-1,2,4-triazol-1-yl)ethyl)-N^5-benzyl-2-phenylpyridine-3,5-diamine] | 2.68 µM | 4.78 µM | 
c1ccc(CNc2ccc(-c3ccccc3)c(NCCn3cncn3)n2)cc1 [SS20308-0221-01, N^2-(2-(1H-1,2,4-triazol-1-yl)ethyl)-N^6-benzyl-3-phenylpyridine-2,6-diamine] | 0.11 µM | 0.66 µM | 
c1ccc(Nc2cccc(NCCn3cncn3)c2)cc1 [SS20308-0223-01, N^1-(2-(1H-1,2,4-triazol-1-yl)ethyl)-N^3-phenylbenzene-1,3-diamine] | 0.11 µM | 0.49 µM | 
Fc1ccc(CNc2ccc(NCCn3cncn3)c(-c3cccc4cc[nH]c34)c2)cc1 [SS20308-0225-01, N^1-(2-(1H-1,2,4-triazol-1-yl)ethyl)-N^4-(4-fluorobenzyl)-2-(1H-indol-7-yl)benzene-1,4-diamine] | 0.03 µM | 0.05 µM | 
FC(F)(F)C(Nc1ccc(NCCn2cncn2)c(-c2ccccc2)c1)c1ccccc1 (centres unmarked) [SS20308-0226-01, N^2-(2-(1H-1,2,4-triazol-1-yl)ethyl)-N^5-(2,2,2-trifluoro-1-phenylethyl)-[1,1′-biphenyl]-2,5-diamine] | 0.06 µM | 0.14 µM | 
Fc1ccc(CNc2cc(F)c(NCCn3cncn3)c(-c3ccccc3)c2)cc1 [SS20308-0227-01, N^2-(2-(1H-1,2,4-triazol-1-yl)ethyl)-3-fluoro-N^5-(4-fluorobenzyl)-[1,1′-biphenyl]-2,5-diamine] | 0.03 µM | 0.39 µM | 
Fc1ccc(CNc2ccc(NCCn3cncn3)c(-c3ccccc3)c2F)cc1 [SS20308-0228-01, N^2-(2-(1H-1,2,4-triazol-1-yl)ethyl)-6-fluoro-N^5-(4-fluorobenzyl)-[1,1′-biphenyl]-2,5-diamine] | 0.02 µM | 0.16 µM | 
Fc1ccc(CNc2cc(-c3ccccc3)c(NCCn3cncn3)cc2F)cc1 [SS20308-0229-01, N2-(2-(1H-1,2,4-triazol-1-yl)ethyl)-4-fluoro-N5-(4-fluorobenzyl)-[1,1′-biphenyl]-2,5-diamine] | 0.02 µM | 0.08 µM and 0.26 µM | 
Fc1ccc(C(Nc2ccc(NCCn3cncn3)cc2)C(F)(F)F)cc1 (centres unmarked) [SS20308-0232-01, N^1-(2-(1H-1,2,4-triazol-1-yl)ethyl)-N^4-(2,2,2-trifluoro-1-(4-fluorophenyl)ethyl)benzene-1,4-diamine] | 0.14 µM | 0.69 µM | 
Fc1ccc(CNc2ccc(NCCCn3cncn3)c(F)c2)cc1 [SS20308-0236-01, N^1-(3-(1H-1,2,4-triazol-1-yl)propyl)-2-fluoro-N^4-(4-fluorobenzyl)benzene-1,4-diamine] | 0.04 µM and 0.03 µM | 0.1 µM and 0.18 µM | 
Cc1ccc(NCc2ccc(F)cc2)cc1NCCCn1cncn1 [SS20308-0237-01, N^3-(3-(1H-1,2,4-triazol-1-yl)propyl)-N^1-(4-fluorobenzyl)-4-methylbenzene-1,3-diamine] | 0.18 µM | 0.28 µM | 
c1cc(NCCCn2cncn2)cc(NC2CCCCC2)c1 [SS20308-0238-01, N^1-(3-(1H-1,2,4-triazol-1-yl)propyl)-N^3-cyclohexylbenzene-1,3-diamine] | 0.17 µM | 0.4 µM | 
c1ncn(CCCNc2ccc(NC3CCCCC3)cc2)n1 [SS20308-0239-01, N^1-(3-(1H-1,2,4-triazol-1-yl)propyl)-N^4-cyclohexylbenzene-1,4-diamine] |  | 0.04 µM and 0.07 µM | 7.52
c1ncn(CCCNc2ccc(NCC3CCCCC3)cc2)n1 [SS20308-0240-01, N^1-(3-(1H-1,2,4-triazol-1-yl)propyl)-N^4-(cyclohexylmethyl)benzene-1,4-diamine] | 0.01 µM | 0.02 µM and 0.03 µM | 
c1cc(NCC2(Cn3cncn3)COC2)cc(NC2CCCCC2)c1 [SS20308-0241-01, N^1-((3-((1H-1,2,4-triazol-1-yl)methyl)oxetan-3-yl)methyl)-N^3-cyclohexylbenzene-1,3-diamine] | 0.36 µM | 1.09 µM | 
c1ncn(CC2(CNc3ccc(NCC4CCCCC4)cc3)COC2)n1 [SS20308-0242-01, N^1-((3-((1H-1,2,4-triazol-1-yl)methyl)oxetan-3-yl)methyl)-N^4-(cyclohexylmethyl)benzene-1,4-diamine] | 0.05 µM | 0.09 µM | 
FC(F)(F)C(Nc1ccc(NCCn2cncn2)cn1)c1ccccc1 (centres unmarked) [SS20308-0245-01, N^5-(2-(1H-1,2,4-triazol-1-yl)ethyl)-N^2-(2,2,2-trifluoro-1-phenylethyl)pyridine-2,5-diamine] | 0.51 µM | 1.19 µM | 
Fc1ccc(CNc2ccc(NCCn3cncn3)cn2)cc1 [SS20308-0246-01, N^5-(2-(1H-1,2,4-triazol-1-yl)ethyl)-N^2-(4-fluorobenzyl)pyridine-2,5-diamine] | 0.08 µM | 0.51 µM | 
FC1(F)CCC(CNc2ccc(NCCn3cncn3)cn2)CC1 [SS20308-0247-01, N^5-(2-(1H-1,2,4-triazol-1-yl)ethyl)-N^2-((4,4-difluorocyclohexyl)methyl)pyridine-2,5-diamine] | 0.13 µM | 0.63 µM | 
Fc1ccc(Nc2ccc(NCCn3cncn3)cn2)cc1 [SS20308-0248-01, N^5-(2-(1H-1,2,4-triazol-1-yl)ethyl)-N^2-(4-fluorophenyl)pyridine-2,5-diamine] | 0.1 µM | 0.63 µM | 
Fc1ccc(CNc2cccc(NCCn3cncn3)n2)cc1 [SS20308-0249-01, N^2-(2-(1H-1,2,4-triazol-1-yl)ethyl)-N^6-(4-fluorobenzyl)pyridine-2,6-diamine] | 0.37 µM | 1.59 µM | 
FC1(F)CCC(CNc2cccc(NCCn3cncn3)n2)CC1 [SS20308-0250-01, N^2-(2-(1H-1,2,4-triazol-1-yl)ethyl)-N^6-((4,4-difluorocyclohexyl)methyl)pyridine-2,6-diamine] | 0.32 µM | 1.26 µM | 
